Read-outs that look alike come from different tables or passages of the source.
Columns and labels:
EGFP-IKZF = EGFP-IKZF (UniProt P42212+Q8C7D2, F64L/H231L/INS1V/S65T); type: cell-based, mouse; settings: stable
EGFP-ZFP91 = EGFP-ZFP91 (UniProt P42212+Q8C7D2, F64L/H231L/INS1V/S65T); type: cell-based, mouse; settings: for Bottom, EGFP-ZFP91 / LogDC50, EGFP-ZFP91: stable
[1] = CrbnI391V/I391V mESCs, Figure 5E

| Compound | Bottom, EGFP-IKZF (EGFP-IKZF; B6J-S1 mESCs, Figure 5B) | LogDC50, EGFP-IKZF (EGFP-IKZF; B6J-S1 mESCs, Figure 5B) | Bottom, EGFP-IKZF (EGFP-IKZF; [1]) | LogDC50, EGFP-IKZF (EGFP-IKZF; [1]) | Bottom, EGFP-ZFP91 (EGFP-ZFP91; B6J-S1 mESCs, Figure 5B) | LogDC50, EGFP-ZFP91 (EGFP-ZFP91; B6J-S1 mESCs, Figure 5B) | degradation of EGFP-ZFP91 (EGFP-ZFP91; CrbnI391V/I391V mESCs) | Bottom, EGFP-ZFP91 (EGFP-ZFP91; [1]) | LogDC50, EGFP-ZFP91 (EGFP-ZFP91; [1]) |
| --- | --- | --- | --- | --- | --- | --- | --- | --- | --- |
| O=C1CC[C@H](N2Cc3c(OCc4ccc(CN5CCOCC5)cc4)cccc3C2=O)C(=O)N1 [IBR, iberdomide] | 1.103 | -1.536 μM | 0.2424 | -3.194 μM | 1.006 | -1.679 μM | efficiently degraded | 0.1665 | -3.079 μM |
| Nc1cccc2c1C(=O)N(C1CCC(=O)NC1=O)C2=O (stereo not shown) [POM, pomalidomide] |  |  | 0.1316 | -2.292 μM |  |  |  | 0.1492 | -2.052 μM |

Source: PMC12274739, “Differential substrate degradation by super-degron: EGFP in wild-type mouse cells, PD-1 requires CRBN humanization” (iScience, 2025)
